Test results as given in patent US20240228489A1, “POSITIVE ALLOSTERIC MODULATORS OF THE MUSCARINIC ACETYLCHOLINE RECEPTOR M1” (Vanderbilt University, priority 2021, published 2024).

Tests used:
[1] = biological target: T1, human mAChR M1 (Homo sapiens, UniProt P11229); assay: mAChR M1 cell-based functional assay (calcium mobilization), PAM mode: increase in the EC20 acetylcholine response
T1 sequence (P11229 1-460): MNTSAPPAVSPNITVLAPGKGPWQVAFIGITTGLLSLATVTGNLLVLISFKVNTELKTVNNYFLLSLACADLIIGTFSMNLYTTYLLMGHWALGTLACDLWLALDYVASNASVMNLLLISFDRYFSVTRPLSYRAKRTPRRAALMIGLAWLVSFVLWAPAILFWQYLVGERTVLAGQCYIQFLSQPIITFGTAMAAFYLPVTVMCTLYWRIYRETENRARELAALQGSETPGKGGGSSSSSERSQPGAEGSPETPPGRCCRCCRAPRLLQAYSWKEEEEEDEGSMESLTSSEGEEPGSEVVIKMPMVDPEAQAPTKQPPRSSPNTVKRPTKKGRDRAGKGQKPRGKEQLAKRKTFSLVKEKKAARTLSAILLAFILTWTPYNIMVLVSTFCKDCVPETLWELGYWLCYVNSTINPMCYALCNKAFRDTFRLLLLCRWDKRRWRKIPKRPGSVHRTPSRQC
Description: (§1) Chinese hamster ovary (CHO-K1) cells stably expressing rat (r)M1 were purchased from the American Type Culture Collection and cultured according to their indicated protocol. CHO cells stably expressing human (h)M2, hM3, and hM5 were described previously (Levey, et al., 1991); hM1 and hM4 cDNAs were purchased from Missouri S&T cDNA Resource; rM4 cDNA was provided by T. I. Bonner (National Institutes of Health, Bethesda, MD). rM2 and rM3 were cloned from a rat brain cDNA library and sequence verified. hM1, rM2, rM3, hM4, and rM4 cDNAs were used to stably transfect CHO-K1 cells purchased from the American Type Culture Collection using Lipofectamine2000. To make stable rM2, hM2, rM3, hM4, and rM4 cell lines for use in calcium mobilization assays, these cells also were stably transfected with a chimeric G-protein (Gqi5) (provided by B. R. Conklin, University of California, San Francisco) using Lipofectamine 2000. rM1, hM1, rM3, hM3, rM5, and hM5 cells were grown in Ham's F-12 medium containing 10% heat-inactivated fetal bovine serum (FBS), 20 mM HEPES, and 50 μg/mL G418 sulfate. rM2-Gqi5, hM2-Gqi5, and hM4-Gqi5 cells were grown in the same medium also containing 500 μg/mL Hygromycin B. Stable rM4-Gqi5 cells were grown in DMEM containing 10% heat-inactivated FBS, 20 mM HEPES, 400 μg/mL G418 sulfate, and 500 μg/mL Hygromycin B.
(§2) For high throughput measurement of agonist-evoked increases in intracellular calcium, CHO-K1 cells stably expressing muscarinic receptors were plated in growth medium lacking G418 and hygromycin at 15,000 cells/20 μL/well in Greiner 384-well black-walled, tissue culture (TC)-treated, clear-bottom plates (VWR). Cells were incubated overnight at 37° C. and 5% C02. The next day, cells were washed using an ELX 405 (BioTek) with four washes (80 μL) of assay buffer then aspirated to 20 μL. Next, 20 μL of 16 μM Fluo-4/acetoxymethyl ester (Invitrogen, Carlsbad, CA) prepared as a 2.3 mM stock in DMSO and mixed in a 1:1 ratio with 10% (w/v) Pluronic F-127 and diluted in assay buffer was added to the wells and the cell plates were incubated for 50 min at 37° C. and 5% C02. Dye was removed by washing with the ELX 405 (four 80 μL washes of assay buffer) then aspirated to 20 μL. Compound master plates were formatted in an 11 point CRC format (1:3 dilutions) in 100% DMSO with a starting concentration of 10 mM using the BRAVO liquid handler (Agilent). Test compound CRCs were then transferred to daughter plates (240 nL) using the Echo acoustic plate reformatter (Labcyte, Sunnyvale, CA) and then diluted into assay buffer (40 μL) to a 2× stock using a Thermo Fisher Combi (Thermo Fisher Scientific, Waltham, MA).
Calcium flux was measured using the Functional Drug Screening System (FDSS) 6000 (Hamamatsu Corporation, Tokyo, Japan) as an increase in the fluorescent static ratio. Compounds were applied to cells (20 μL, 2×) using the automated system of the FDSS 6000 at 4 s into the 300 s protocol and the data were collected at 1 Hz. At 144 s into the 300 s protocol, 10 μL of an EC20 concentration of the muscarinic receptor agonist acetylcholine was added (5×), followed by the addition of 12 μL of an EC80 concentration of acetylcholine at the 230 s time point (5×). Agonist activity was analyzed as a concentration-dependent increase in calcium mobilization upon compound addition. Emax values for agonist activity are expressed relative to the maximum for acetylcholine. Positive allosteric modulator activity was analyzed as a concentration-dependent increase in the EC20 acetylcholine response. Antagonist activity was analyzed as a concentration-dependent decrease in the EC80 acetylcholine response. Concentration-response curves were generated using a four-parameter logistical equation in XLfit curve fitting software (IDBS, Bridgewater, NJ) for Excel (Microsoft, Redmond, WA) or Prism (GraphPad Software, Inc., San Diego, CA). […]

[2] = biological target: T1, human mAChR M1; assay: mAChR M1 cell-based functional assay (calcium mobilization), agonist mode: compound alone, Emax relative to acetylcholine maximum; details: for Agonist Activity Human M1 EC50 / EC50: human mAChR M1; for Emax: relative to the maximum for acetylcholine
Description: as §1, §2
Calcium flux was measured using the Functional Drug Screening System (FDSS) 6000 (Hamamatsu Corporation, Tokyo, Japan) as an increase in the fluorescent static ratio. Compounds were applied to cells (20 μL, 2×) using the automated system of the FDSS 6000 at 4 s into the 300 s protocol and the data were collected at 1 Hz. At 144 s into the 300 s protocol, 10 μL of an EC20 concentration of the muscarinic receptor agonist acetylcholine was added (5×), followed by the addition of 12 μL of an EC80 concentration of acetylcholine at the 230 s time point (5×). Agonist activity was analyzed as a concentration-dependent increase in calcium mobilization upon compound addition. Emax values for agonist activity are expressed relative to the maximum for acetylcholine. Positive allosteric modulator activity was analyzed as a concentration-dependent increase in the EC20 acetylcholine response. Antagonist activity was analyzed as a concentration-dependent decrease in the EC80 acetylcholine response. Concentration-response curves were generated using a four-parameter logistical equation in XLfit curve fitting software (IDBS, Bridgewater, NJ) for Excel (Microsoft, Redmond, WA) or Prism (GraphPad Software, Inc., San Diego, CA).

| SMILES | EC50 [1] | Emax [1] | Agonist Activity Human M1 EC50 [2] | Emax [2] | EC50 [2] |
| --- | --- | --- | --- | --- | --- |
| [2H]C1([2H])c2ncccc2C(=O)N1Cc1ccc(-c2ccc3cn(C)nc3c2)cc1 [Compound 14, 6-(4-(2-methyl-2H-indazol-6-yl)benzyl)-6,7-dihydro-5H-pyrrolo[3,4-b]pyridin-5-one-7,7-d2] | 6.8 µM | 77% | Inactive | 2% | – |
| [2H]C1([2H])c2ncccc2C(=O)N1Cc1ccc(-c2cc3cn(C)nc3cc2F)cc1 [Compound 15, 6-(4-(6-fluoro-2-methyl-2H-indazol-5-yl)benzyl)-6,7-dihydro-5H-pyrrolo[3,4-b]pyridin-5-one-7,7-d2] | 1.77 µM | 51% | Inactive | 2% | – |
| [2H]C1([2H])c2ncccc2C(=O)N1Cc1ccc(-c2cc3cn(C)nc3cc2C)cc1 [Compound 16, 6-(4-(2,6-dimethyl-2H-indazol-5-yl)benzyl)-6,7-dihydro-5H-pyrrolo[3,4-b]pyridin-5-one-7,7-d2] | > 10 µM | 55% | Inactive | 3% | – |
| [2H]C1([2H])c2ncccc2C(=O)N1Cc1ccc(-c2cc(C)c3nn(C)cc3c2)cc1 [Compound 17, 6-(4-(2,7-dimethyl-2H-indazol-5-yl)benzyl)-6,7-dihydro-5H-pyrrolo[3,4-b]pyridin-5-one-7,7-d2] | 0.853 µM | 79% | Inactive | 4% | – |
| [2H]C1([2H])c2ncccc2C(=O)N1Cc1ccc(-c2ccc3cncn3c2)cc1 [Compound 18, 6-(4-(imidazo[1,5-a]pyridin-6-yl)benzyl)-6,7-dihydro-5H-pyrrolo[3,4-b]pyridin-5-one-7,7-d2] | 4.17 µM | 65% | Inactive | 2% | – |
| [2H]C1([2H])c2ncccc2C(=O)N1Cc1ccc(-c2ccn3ccnc3c2)cc1 [Compound 19, 6-(4-(imidazo[1,2-a]pyridin-7-yl)benzyl)-6,7-dihydro-5H-pyrrolo[3,4-b]pyridin-5-one-7,7-d2] | > 10 µM | 58% | Inactive | 4% | – |
| [2H]C1([2H])c2ncccc2C(=O)N1Cc1ccc(-c2ccc3cn(C)nc3c2)cc1F [Compound 20, 6-(2-fluoro-4-(2-methyl-2H-indazol-6-yl)benzyl)-6,7-dihydro-5H-pyrrolo[3,4-b]pyridin-5-one-7,7-d2] | 3.97 µM | 75% | Inactive | 3% | – |
| [2H]C1([2H])c2ncccc2C(=O)N1Cc1ccc(-c2cnc3nn(C)cc3c2)cc1F [Compound 21, 6-(2-fluoro-4-(2-methyl-2H-pyrazolo[3,4-b]pyridin-5-yl)benzyl)-6,7-dihydro-5H-pyrrolo[3,4-b]pyridin-5-one-7,7-d2] | 2.42 µM | 76% | Inactive | 6% | – |
| [2H]C1([2H])c2ncccc2C(=O)N1Cc1ccc(-c2ccnc3nn(C)cc23)cc1F [Compound 22, 6-(2-fluoro-4-(2-methyl-2H-pyrazolo[3,4-b]pyridin-4-yl)benzyl)-6,7-dihydro-5H-pyrrolo[3,4-b]pyridin-5-one-7,7-d2] | 1.94 µM | 74% | Inactive | 6% | – |
| [2H]C1([2H])c2ncccc2C(=O)N1Cc1ccc(-c2cccc3nn(C)cc23)cc1F [Compound 23, 6-(2-fluoro-4-(2-methyl-2H-indazol-4-yl)benzyl)-6,7-dihydro-5H-pyrrolo[3,4-b]pyridin-5-one-7,7-d2] | 1.13 µM | 76% | Inactive | 7% | – |
| [2H]C1([2H])c2ncccc2C(=O)N1Cc1ccc(-c2cc3cn(C)nc3cc2F)cc1F [Compound 24, 6-(2-fluoro-4-(6-fluoro-2-methyl-2H-indazol-5-yl)benzyl)-6,7-dihydro-5H-pyrrolo[3,4-b]pyridin-5-one-7,7-d2] | 3.6 µM | 69% | Inactive | 2% | – |
| [2H]C1([2H])c2ncccc2C(=O)N1Cc1ccc(-c2cc(C)c3nn(C)cc3c2)cc1F [Compound 25, 6-(4-(2,7-dimethyl-2H-indazol-5-yl)-2-fluorobenzyl)-6,7-dihydro-5H-pyrrolo[3,4-b]pyridin-5-one-7,7-d2] | 1.07 µM | 76% | Inactive | 4% | – |
| [2H]C1([2H])c2ncccc2C(=O)N1Cc1ccc(-c2cc3cn(C)nc3cc2C)cc1F [Compound 26, 6-(4-(2,6-dimethyl-2H-indazol-5-yl)-2-fluorobenzyl)-6,7-dihydro-5H-pyrrolo[3,4-b]pyridin-5-one-7,7-d2] | 7.58 µM | 58% | Inactive | 3% | – |
| [2H]C1([2H])c2ncccc2C(=O)N1Cc1c(F)cc(-c2ccc(C)c3nn(C)cc23)cc1F [Compound 27, 6-(4-(2,7-dimethyl-2H-indazol-4-yl)-2,6-difluorobenzyl)-6,7-dihydro-5H-pyrrolo[3,4-b]pyridin-5-one-7,7-d^2] | 0.542 µM | 84% | Inactive | 4% | – |
| [2H]C1([2H])c2ncccc2C(=O)N1Cc1ccc(-c2ccc(C)c3nn(C)cc23)cc1F [Compound 28, 6-(4-(2,7-dimethyl-2H-indazol-4-yl)-2-fluorobenzyl)-6,7-dihydro-5H-pyrrolo[3,4-b]pyridin-5-one-7,7-d2] | 0.535 µM | 80% | – | 28% | 6.24 µM |
| [2H]C1([2H])c2ncccc2C(=O)N1Cc1ccc(-c2cccc3nn(C)cc23)cc1C [Compound 29, 6-(2-methyl-4-(2-methyl-2H-indazol-4-yl)benzyl)-6,7-dihydro-5H-pyrrolo[3,4-b]pyridin-5-one-7,7-d2] | 0.632 µM | 81% | – | 33% | 7.86 µM |
